According to patent US20250179055A1, “Substituted 2-(pyrrolidine-3-yl)acetic acid derivative, preparation method and use thereof” (INNOVSTONE THERAPEUTICS LIMITED, priority 2023, published 2025):

How the values were obtained:
[1] = Pharmacokinetic test in C57BL/6J female mice; assay type: in vivo; conditions: mouse, plasma; for bioavailability: gavage 10 mg/kg vs intravenous 2 mg/kg
Protocol: C57BL/6J female mice were used as test animals, and the drug concentration in plasma of C57BL/6J female mice at different time points after intravenous and gavage administration was determined to study the pharmacokinetic characteristics of the compound in C57BL/6J female mice.
Drug formulation: a certain amount of compound was weighed and normal saline was added to prepare clear, colorless solutions of 0.4 mg/mL (IV) and 1 mg/mL (PO).
Test procedure: C57BL/6J female mice were fasted overnight before gavage administration, followed by non-fasted intravenous administration. The intravenous dose was 2 mg/kg, and the gavage dose was 10 mg/kg. Approximately 0.03 mL of blood was collected from the orbital venous plexus at 0.083 (IV), 0.25, 0.5, 1, 2, 4, 8 and 24 h after administration, respectively, placed in a centrifuge tube containing EDTA-K2, centrifuged at 3000 rpm/min at 2-8° C. for 10 min to obtain plasma, and stored at −80° C.
Determination of the content of the compound to be tested in plasma of C57BL/6J female mice at different blood collection time points: 10 μL of plasma of C57BL/6J female mice collected at each time point after administration of LY3473329 and the compound of this application was added with 200 μL of 500 mM trichloroacetic acid aqueous solution to precipitate protein, which contained 100 ng/mL internal standard, vortexed for 1 min, centrifuged at 14000 rpm for 7 min for samples treated with test tubes, and centrifuged at 4000 rpm for 10 min for samples treated with 96-well plates, and 190 μL of the supernatant was transferred to a 96-well plate, and 8 μL of the supernatant was injected for LC-MS/MS analysis. WO2023078333A1 Example 6:12 μL of plasma of C57BL/6J female mice collected at each time point after administration was added with 240 μL of methanol to precipitate protein, which contained 10 ng/mL internal standard, vortexed for 1 min, centrifuged at 14000 rpm for 7 min for samples treated with test tubes, and centrifuged at 4000 rpm for 10 min for samples treated with 96-well plates. 220 μL of the supernatant was transferred to a 96-well plate, and 10 μL of the supernatant was taken for LC-MS/MS analysis.
After plasma concentrations were determined by LC/MS/MS analysis method, pharmacokinetic parameters (e.g. Cmax, AUC, T1/2, etc.) were calculated using WinNonlin software and noncompartmental analysis.

[2] = target: Lp(a) assembly in HepG2 cells overexpressing ApoA protein (Homo sapiens (Human), UniProt P08519); assay: ELISA assay on screening Lp(a) assembly inhibition; assay type: cell-based; conditions: HepG2 cells overexpressing ApoA protein, 24 h, ELISA of supernatant
Chain of Lp(a) assembly in HepG2 cells overexpressing ApoA protein (P08519 20-2040): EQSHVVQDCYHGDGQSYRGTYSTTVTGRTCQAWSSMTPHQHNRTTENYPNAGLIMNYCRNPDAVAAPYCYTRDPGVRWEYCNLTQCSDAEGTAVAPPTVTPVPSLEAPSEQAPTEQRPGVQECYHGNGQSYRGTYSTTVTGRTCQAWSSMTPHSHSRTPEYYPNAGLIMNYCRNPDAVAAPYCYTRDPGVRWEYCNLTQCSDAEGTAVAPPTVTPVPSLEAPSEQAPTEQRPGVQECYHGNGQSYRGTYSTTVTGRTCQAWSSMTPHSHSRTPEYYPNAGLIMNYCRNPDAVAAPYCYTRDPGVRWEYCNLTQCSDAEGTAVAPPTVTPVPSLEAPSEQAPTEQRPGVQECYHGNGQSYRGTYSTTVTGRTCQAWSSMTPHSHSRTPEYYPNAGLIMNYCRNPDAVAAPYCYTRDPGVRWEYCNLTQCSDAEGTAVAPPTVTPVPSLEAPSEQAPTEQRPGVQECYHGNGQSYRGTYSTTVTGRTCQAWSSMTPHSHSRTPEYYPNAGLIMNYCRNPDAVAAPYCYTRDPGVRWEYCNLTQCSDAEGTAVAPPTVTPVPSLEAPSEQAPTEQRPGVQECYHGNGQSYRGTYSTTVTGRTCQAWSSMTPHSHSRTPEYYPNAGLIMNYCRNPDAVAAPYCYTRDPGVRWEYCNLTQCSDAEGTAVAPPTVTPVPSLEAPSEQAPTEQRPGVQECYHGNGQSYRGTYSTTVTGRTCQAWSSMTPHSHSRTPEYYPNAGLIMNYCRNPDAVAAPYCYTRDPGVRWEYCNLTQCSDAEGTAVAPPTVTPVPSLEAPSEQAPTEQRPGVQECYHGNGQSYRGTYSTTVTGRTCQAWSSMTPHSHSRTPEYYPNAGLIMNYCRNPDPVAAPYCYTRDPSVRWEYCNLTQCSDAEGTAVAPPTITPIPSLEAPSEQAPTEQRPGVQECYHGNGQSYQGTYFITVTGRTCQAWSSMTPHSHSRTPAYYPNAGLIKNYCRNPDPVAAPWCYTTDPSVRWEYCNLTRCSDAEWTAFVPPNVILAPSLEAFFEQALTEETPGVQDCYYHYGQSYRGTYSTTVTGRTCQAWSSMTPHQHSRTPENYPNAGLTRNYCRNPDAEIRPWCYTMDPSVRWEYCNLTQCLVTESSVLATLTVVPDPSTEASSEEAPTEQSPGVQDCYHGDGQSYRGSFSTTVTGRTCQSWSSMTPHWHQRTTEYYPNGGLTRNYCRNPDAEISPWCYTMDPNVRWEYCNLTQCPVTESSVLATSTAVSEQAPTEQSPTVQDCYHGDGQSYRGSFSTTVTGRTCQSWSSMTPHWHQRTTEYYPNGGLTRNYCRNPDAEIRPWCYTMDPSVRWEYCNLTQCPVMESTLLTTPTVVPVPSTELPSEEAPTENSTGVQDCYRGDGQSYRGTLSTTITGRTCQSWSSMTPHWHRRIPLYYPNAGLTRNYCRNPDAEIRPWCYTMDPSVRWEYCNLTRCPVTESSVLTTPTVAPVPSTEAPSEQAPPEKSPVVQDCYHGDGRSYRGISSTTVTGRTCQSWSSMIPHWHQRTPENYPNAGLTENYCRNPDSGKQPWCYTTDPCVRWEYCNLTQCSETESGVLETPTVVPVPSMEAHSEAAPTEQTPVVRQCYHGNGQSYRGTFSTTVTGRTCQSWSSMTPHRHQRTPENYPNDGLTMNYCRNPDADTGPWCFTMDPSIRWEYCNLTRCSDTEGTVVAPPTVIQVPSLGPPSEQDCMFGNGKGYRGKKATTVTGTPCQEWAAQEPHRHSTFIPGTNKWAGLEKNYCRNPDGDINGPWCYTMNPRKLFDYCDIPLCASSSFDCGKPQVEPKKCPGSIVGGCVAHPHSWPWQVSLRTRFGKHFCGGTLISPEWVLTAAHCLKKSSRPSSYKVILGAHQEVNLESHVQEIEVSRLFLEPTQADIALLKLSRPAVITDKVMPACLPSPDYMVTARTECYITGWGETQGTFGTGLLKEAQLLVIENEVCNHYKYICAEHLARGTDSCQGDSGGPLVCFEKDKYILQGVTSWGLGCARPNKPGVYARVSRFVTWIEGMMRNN
Method in brief: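 HepG2 cells overexpressing ApoA treated with diluted compounds for 24 h at 37 °C, 5% CO2; EACA (10 μL of 1.5 M) added before harvesting supernatant. Secreted Lp(a) quantified by sandwich ELISA; IC50 from four-parameter Hill fit of % inhibition versus concentration.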

serum Lp(a) = assay: Humanized mouse Lp(a) inhibition test; assay type: in vivo, humanized Lp(a) transgenic mouse; conditions: blood 8 h after last dose, humanized Lp(a) mice
Protocol: The in vivo pharmacodynamics of the compounds in reducing Lp(a) was evaluated in a humanized Lp(a) transgenic mouse model. Lp(a) mice were obtained by crossing mice expressing humanized apoB-100 with mice expressing humanized apo(a) containing 16 Kringle repeats. Female mice aged 8-9 weeks were selected for the test. Housing conditions: standard light cycle (12 h light/12 h dark), temperature 20-25° C., humidity 40-70%, free access to water and normal diet. is One day before the test, mice were divided into vehicle control group and test article group (n=5/group) according to body weight and baseline plasma Lp(a) concentration. Mice were orally administered with vehicle (normal saline, 10 mL/kg) or test compound (prepared with normal saline to 3 or 0.5 mg/mL, each mouse received 10 mL/kg), once daily (9:00 am) for 3 consecutive days, and blood was collected to determine the change of serum Lp(a). Eight hours after the last dose, 10 μL of blood was collected from the tail vein and transferred to a 1.5 mL centrifuge tube containing 90 μL of normal saline, mixed well, and left to stand on ice for 30 min. The above samples were centrifuged at 4° C., 3000 rpm for 10 min, and the supernatant was collected and placed on ice. The Lp(a) concentration in the supernatant was measured by double-antibody sandwich ELISA using an anti-apo(a) capture antibody and an HRP-conjugated anti-ApoB detection antibody, with TMB for color development. The reaction was stopped with 1 N sulfuric acid, and the OD value was read at 450 nm on a Tecan microplate reader. Inhibition rate was calculated for each dosing group. Inhibition rate (%)=(vehicle control group Lp(a) concentration or self pre-dose Lp(a) concentration post-dose Lp(a) concentration)/vehicle control group Lp(a) concentration or self pre-dose Lp(a) concentration*100.

[3] = Safety assessment test in rats (14-day oral gavage); assay type: in vivo; conditions: SD rats, 300 and 1000 mg/kg oral once daily for 14 days
Protocol: The safety of the compounds of the present invention was evaluated by oral gavage administration to SD rats as the test animals.
Test method: 50 SD rats (half males and half females) were randomly divided into vehicle control group and test article group according to their body weight. The vehicle saline or the compound of the present invention or LY3473329 (300 mg/kg, 1000 mg/kg) was administered orally once daily for 14 consecutive days.

[4] = intravenous administration, 2 mg/kg
[5] = po, gavage administration, 10 mg/kg
[6] = 5 mg/kg oral once daily for 3 days

AUC [1, 4] | half-life [1, 4] | bioavailability ([1]; po) | AUC [1, 5] | Cmax [1, 5] | half-life [1, 5] | IC50 [2] | Compound | Lp(a) Inhibition Rate (serum Lp(a); [6]) | compound-related changes in clinical observation, body weight, food consumption, hematology, blood biochemistry, urine, organ weight, histopathology [3] | Lp(a) Inhibition Rate (serum Lp(a); 30 mg/kg oral once daily for 3 days)
33400 ng·h/mL | 35.5 h | 13.5% | 21000 ng·h/mL | 874 ng/mL | 28.9 h | 1.68 nM | O=C(O)[C@@H](Cc1cccc(CC(=O)N(CCCOc2cccc(C[C@H](C(=O)O)[C@H]3CCNC3)c2)Cc2cccc(C[C@H](C(=O)O)[C@H]3CCNC3)c2)c1)[C@H]1CCNC1 [Compound 159, (S)-3-(3-(2-((3-((S)-2-carboxy-2-((R)-pyrrolidin-3-yl)ethyl)benzyl)(3-(3-((S)-2-carboxy-2-((R)-pyrrolidin-3-yl)ethyl)phenoxy)propyl)amino)-2-oxoethyl)phenyl)-2-((R)-pyrrolidin-3-yl)propanoic acid] | 84% |  | 
8820 ng·h/mL | 9.8 h | 10.1% | 4460 ng·h/mL | 629 ng/mL | 7.4 h |  | O=C(O)[C@@H](Cc1cccc(CN(Cc2cccc(C[C@H](C(=O)O)[C@H]3CCNC3)c2)Cc2cccc(C[C@H](C(=O)O)[C@H]3CCNC3)c2)c1)[C@H]1CCNC1 [LY3473329, reference compound] |  | no changes | 
19200 ng·h/mL | 12.1 h | 15.9% | 23500 ng·h/mL | 816 ng/mL | 28.8 h | 1.37 nM | O=C(O)[C@@H](Cc1cccc(COCCN(Cc2cccc(C[C@H](C(=O)O)[C@H]3CCNC3)c2)C(=O)Cc2cccc(C[C@H](C(=O)O)[C@H]3CCNC3)c2)c1)[C@H]1CCNC1 [Compound 160, (S)-3-(3-(2-((3-((S)-2-carboxy-2-((R)-pyrrolidin-3-yl)ethyl)benzyl)(2-((3-((S)-2-carboxy-2-((R)-pyrrolidin-3-yl)ethyl)benzyl)oxy)ethyl)amino)-2-oxoethyl)phenyl)-2-((R)-pyrrolidin-3-yl)propanoic acid] | 83% |  | 
22900 ng·h/mL | 23.3 h | 13.9% | 12400 ng·h/mL | 919 ng/mL | 11.4 h | 0.58 nM | O=C(O)[C@@H](Cc1cccc(CC(=O)N(CCOc2cccc(C[C@H](C(=O)O)[C@H]3CCNC3)c2)Cc2cccc(C[C@H](C(=O)O)[C@H]3CCNC3)c2)c1)[C@H]1CCNC1 [Compound 96, (S)-3-(3-(2-((3-((S)-2-carboxy-2-((R)-pyrrolidin-3-yl)ethyl)benzyl)(2-(3-((S)-2-carboxy-2-((R)-pyrrolidin-3-yl)ethyl)phenoxy)ethyl)amino)-2-oxoethyl)phenyl)-2-((R)-pyrrolidin-3-yl)propanoic acid] | 91% |  | 96%

Compound | AUC [1, 4] | half-life [1, 4] | bioavailability ([1]; po) | AUC [1, 5] | Cmax [1, 5] | half-life [1, 5] | IC50 [2] | Lp(a) Inhibition Rate (serum Lp(a); [6]) | compound-related changes in clinical observation, body weight, food consumption, hematology, blood biochemistry, urine, organ weight, histopathology [3] | Lp(a) Inhibition Rate (serum Lp(a); 30 mg/kg oral once daily for 3 days)
O=C(O)[C@@H](Cc1cccc(CN(CCOc2cccc(C[C@H](C(=O)O)[C@H]3CCNC3)c2)C(=O)Nc2cccc(C[C@H](C(=O)O)[C@H]3CCNC3)c2)c1)[C@H]1CCNC1 [Compound 131, (S)-3-(3-(3-(3-((S)-2-carboxy-2-((R)-pyrrolidin-3-yl)ethyl)benzyl)-3-(2-(3-((S)-2-carboxy-2-((R)-pyrrolidin-3-yl)ethyl)phenoxy)ethyl)ureido)phenyl)-2-((R)-pyrrolidin-3-yl)propanoic acid] | 31300 ng·h/mL | 33.7 h | 13.2% | 14300 ng·h/mL | 893 ng/mL | 16 h | 1.19 nM | 81% |  | 
